Measurements published in US20240425512A1, “NITROGEN-CONTAINING HETEROCYCLIC COMPOUND, PHARMACEUTICAL COMPOSITION THEREOF AND APPLICATION THEREOF” (280 Bio, Inc., priority 2023, published 2024).
Where two headings read alike, the source gives them in different places.

Assays:
Format in all cases: cell-based
[1] = system: LS513 colon cancer cell with KRAS G12D mutation; assay: Proliferation inhibition on RAS cell lines measured by CTG, LS513; settings: LS513 cells, incubated for 6 days, CellTiter Glo
Description: (§1) NCI-H358 is a human non-small cell lung cancer cell line with KRAS G12C mutation; AGS is a gastric cancer cell line with KRAS G12D mutation; SW620 is a colon cancer cell with KRAS G12V mutation; NCI-H460 is a non-small cell lung cancer cell with KRAS Q61H mutation; MKN1 is a wild-type gastric cancer cell with KRAS-amplified; LS513 is a colon cancer cell with KRAS G12D mutation; LoVo is a colon cancer cell with KRAS G13D mutation; NCI-H441 is a lung cancer cell with KRAS G12V mutation, and Capan-2 is a pancreatic cancer cell with KRAS G12V mutation.
(§2) The proliferation inhibitory effect of the compounds on various mutations was evaluated by determining the proliferation inhibitory activity of the compounds on these cell lines.
(§3) The assay was conducted on either 384-well plates or 96-well plates. The procedures are as follows:
(§4) The cell suspensions were added to 384- or 96-well plates (384-well plate: 50 μL; 96-well plate: 100 μL) except for peripheral wells. The plates were placed in a carbon dioxide incubator overnight. NCI-H358, AGS, NCI-H460, MKN-1, LS513, LoVo, and NCI-H441 were placed in a 5%, 370 carbon dioxide incubator overnight, and SW620 was placed in a 0%, 370 carbon dioxide incubator overnight. The HPD300 micro-dosing instrument was used to add the corresponding concentration of compound to each well (9-10 concentration gradients of compound were obtained by 3-fold dilution). Cell plates were incubated in a carbon dioxide incubator for 5-6 days. NCI-H358, AGS, NCI-H460 and MKN-1 were incubated at 5%, 37° incubator and SW620 was incubated at 0%, 370 incubator. On the day of plate measurement, the 384- or 96-well plates were first equilibrated at room temperature for 10-30 min, then CellTiter Glo reagent (384-well plate: 25 μL; 96-well plate: 100 μL) was added to the 384- or 96-well plate, shaken for 10 min away from light, and incubated for 10 min. The plates were placed into Victor NIVO or ENVIDION reader plates, and XLFit was utilized to plot the pharmacodynamic inhibition curve and calculate the IC50 value. “IC50>10 μM” is denoted by “*”, “10 μM≥IC50≥1 μM” is denoted by “**”, and “1 μM≥IC50>100 nM” is denoted by “***”, “IC50<100 nM” is denoted by “****”

[2] = system: SW620 colon cancer cell with KRAS G12V mutation; assay: Proliferation inhibition on RAS cell lines measured by CTG, SW620; settings: Homo sapiens, SW-620, 144 h; Table 2; SW620 cells, incubated for 6 days, CellTiter Glo; read-out: IC50 (SW620^c)
Description: as §1, §2, §3, §4

GP2D cells = assay: Proliferation inhibition on RAS cell lines measured by CTG, GP2D; settings: CellTiter Glo
Protocol: as §2, §3, §4

[3] = system: NCI-H441 lung cancer cell with KRAS G12V mutation; assay: Proliferation inhibition on RAS cell lines measured by CTG, NCI-H441; settings: Homo sapiens, Table 2, NCI-H441 cells, incubated for 6 days, CellTiter Glo
Description: as §1, §2, §3, §4

[4] = Homo sapiens, LS-513, 144 h, Table 2, read-out: IC50 (LS513^f)
[5] = 144 h, Table 2, incubated for 6 days, read-out: IC50 (GP2D^j)
[6] = Homo sapiens, LS-513, 144 h, Table 3, read-out: IC50 (LS513^k)
[7] = 144 h, Table 3, incubated for 6 days, read-out: IC50 (GP2D^l)

Compound	IC50 [1, 4]	IC50 [1, 6]	IC50 (GP2D cells; [7])	other results
C#Cc1c(F)ccc2cc(N)cc(-c3ncc4c(N5CCCCCN5)nc(OC[C@@]56CCCN5C[C@H](F)C6)nc4c3F)c12 [Compound 30]	< 100 nM			IC50 [2]: < 100 nM
C/C=C\c1c(Cl)cc2[nH]ncc2c1-c1c(F)cc2c(N3CCCCCN3)nc(OC[C@@]34CCCN3C[C@H](F)C4)nc2c1F [Compound 50]	100 to 1000 nM			IC50 [2]: 100 to 1000 nM
C#Cc1c(F)ccc2cc(O)cc(-c3ncc4c(N5CC(O)CCCN5)nc(OC[C@@]56CCCN5C[C@H](F)C6)nc4c3F)c12 (some centres unmarked) [Compound 39]				IC50 [2]: 1000 to 10000 nM
C#Cc1c(F)ccc2cc(O)cc(-c3ncc4c(N5CCCCCN5)nc(OCC56CCCN5C(COc5cc(C(F)(F)F)cnn5)CC6)nc4c3F)c12 (centres unmarked) [Compound 58]	< 100 nM			IC50 (GP2D cells; [5]): < 100 nM
C#Cc1c(F)ccc2c(F)c(O)cc(-c3ncc4c(N5CCCCCN5)nc(OC[C@@]56CCCN5C[C@H](F)C6)nc4c3F)c12 [Compound 64]	< 100 nM			IC50 (GP2D cells; [5]): < 100 nM
[2H]C([2H])(Oc1nc(N2CCCCCN2)c2cnc(-c3cc(O)cc4ccc(F)c(C#C)c34)c(F)c2n1)[C@@]12CCCN1C[C@H](F)C2 [Compound 82]	< 100 nM			IC50 (GP2D cells; [5]): < 100 nM
C#Cc1c(F)ccc2cc(OC(=O)C(C)C)cc(-c3ncc4c(N5CCCCCN5)nc(OC[C@@]56CCCN5C[C@H](F)C6)nc4c3F)c12 [Compound 23]	< 100 nM			IC50 ([3]; NCI-H441, 144 h): < 100 nM
C#Cc1c(F)ccc2cc(OC(=O)N3CCOCC3)cc(-c3ncc4c(N5CCCCCN5)nc(OC[C@@]56CCCN5C[C@H](F)C6)nc4c3F)c12 [Compound 90]		< 100 nM	< 100 nM	
C#Cc1c(F)ccc2cc(OC(=O)[C@@H](NC(=O)OC(C)(C)C)C(C)C)cc(-c3ncc4c(N5CCCCCN5)nc(OC[C@@]56CCCN5C[C@H](F)C6)nc4c3F)c12 [Compound 95]				IC50 ([1]; Table 3, read-out: IC50 (LS513^k)): < 100 nM; IC50 (GP2D cells; Table 3, incubated for 6 days, read-out: IC50 (GP2D^l)): < 100 nM
C#Cc1c(F)ccc2cc(OC(=O)N3CCC(N4CCCCC4)CC3)cc(-c3ncc4c(N5CCCCCN5)nc(OC[C@@]56CCCN5C[C@H](F)C6)nc4c3F)c12 [Compound 73]		100 to 1000 nM	100 to 1000 nM	
C#Cc1c(F)ccc2cc(OC(=O)NC)cc(-c3ncc4c(N5CCCCCN5)nc(OC[C@@]56CCCN5C[C@H](F)C6)nc4c3F)c12 [Compound 19]	< 100 nM			IC50 ([3]; 144 h): 1000 to 10000 nM
C#Cc1c(F)ccc2cc(OC(=O)N(CCOC)CCOC)cc(-c3ncc4c(N5CCCCCN5)nc(OC[C@@]56CCCN5C[C@H](F)C6)nc4c3F)c12 [Compound 98]		< 100 nM	< 100 nM	
C#Cc1c(F)ccc2cc(OC(=O)NCCOC)cc(-c3ncc4c(N5CCCCCN5)nc(OC[C@@]56CCCN5C[C@H](F)C6)nc4c3F)c12 [Compound 93]		< 100 nM	< 100 nM	
C#Cc1c(F)ccc2cc(O)cc(-c3ncc4c(N5CCCCCN5)nc(OC[C@@]56CC[C@H](c7ccc(OC(F)(F)F)cc7)N5C[C@H](F)C6)nc4c3F)c12 [Compound 121]		100 to 1000 nM	100 to 1000 nM	
C#Cc1c(F)ccc2cc(OCOC(=O)N(C)C)cc(-c3ncc4c(N5CCCCCN5)nc(OC[C@@]56CCCN5C[C@H](F)C6)nc4c3F)c12 [Compound 145]		100 to 1000 nM	100 to 1000 nM	
C#Cc1c(F)ccc2cc(O)cc(-c3ncc4c(N5CCCCN5C(=O)OC(C)(C)C)nc(OC[C@@]56CCCN5C[C@H](F)C6)nc4c3F)c12 [Compound 17]	< 100 nM			IC50 ([3]; NCI-H441, 144 h): 100 to 1000 nM
C#Cc1c(F)ccc2cc(OC(=O)NCCCCCCCCCCCCCCCC)cc(-c3ncc4c(N5CCCCCN5)nc(OC[C@@]56CCCN5C[C@H](F)C6)nc4c3F)c12 [Compound 101]		< 100 nM	< 100 nM	
C#Cc1c(F)ccc2cc(O)cc(-c3ncc4c(N5CCCCCN5)nc(OC[C@@H]5CCCN5C)nc4c3F)c12 [Compound 72]	< 100 nM			IC50 (GP2D cells; [5]): < 100 nM
